Assay results published in patent US6706663B2, “Herbicidal 3-heterocyclic substituted benzisothiazole and benzisoxazole compounds” (Wyeth, priority 2000, dated 2004).

How the values were obtained:
[1] = test system: GLXMAW (Soybean, Williams); experiment: Postemergence herbicidal evaluation; type: in vivo, Glycine max, (L.) Merr. cv Williams; settings: postemergence, rate 0.0320 kg/ha
Method in brief: (§1)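 Visual 0–9 injury scores versus control plants, covering stand, vigour, malformation, size, chlorosis and general appearance, taken four to five weeks post-spray and averaged over replicate tests. Plants were sprayed at roughly two weeks old and held on greenhouse benches.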

[2] = test system: ECHCG (Echinochloa crus-galli); experiment: Postemergence herbicidal evaluation; type: in vivo, (L.) Beau; settings: postemergence
Method in brief: as §1

[3] = test system: ZEAMX (Corn, Field); experiment: Postemergence herbicidal evaluation; type: in vivo, Zea mays, L.; settings: postemergence
Method in brief: as §1

[4] = test system: IPOHE (Ipomoea hederacea); experiment: Postemergence herbicidal evaluation; type: in vivo, (L.) Jacq.; settings: postemergence
Method in brief: as §1

[5] = test system: ORYSAT (Rice, Tebonnet); experiment: Preemergence herbicidal evaluation; type: in vivo, Oryza sativa, (L.) Tebonnet; settings: rated 4-5 weeks after treatment
[6] = test system: GALAP (Galium aparine); experiment: Postemergence herbicidal evaluation; type: in vivo; settings: postemergence, rate 0.0320 kg/ha
Method in brief: as §1

[7] = test system: CYPIR (Cyperus iria); experiment: Flooded paddy, preemergence weed control; type: in vivo; settings: rated 3-4 weeks after treatment, 0-9 rating scale
Method in brief: (§2)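 Greenhouse paddy test, preemergence. Seeds planted in the top 0.5 cm of silt loam soil, which remained flooded at 1.5–3 cm depth. Scored 0-9 by visual comparison with control.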

[8] = test system: ECHCG (Echinochloa crus-galli); experiment: Preemergence herbicidal evaluation; type: in vivo, (L.) Beau; settings: rated 4-5 weeks after treatment
Method in brief: (§3)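 Steps: mix seeds with potting soil; plant on ~1 inch soil per cup; spray compound in aqueous acetone; hold on greenhouse benches with routine watering; rate 0–9 visually against control at 4–5 weeks.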

[9] = test system: SETVI (Setaria viridis); experiment: Preemergence herbicidal evaluation; type: in vivo, (L.) Beau; settings: rated 4-5 weeks after treatment
Method in brief: as §3

[10] = test system: MOOVA (Monochoria vaginalis); experiment: Flooded paddy, preemergence weed control; type: in vivo, Presl.; settings: rated 3-4 weeks after treatment, 0-9 rating scale
Method in brief: as §2

[11] = test system: ECHORC (Echinochloa oryzoides); experiment: Flooded paddy, preemergence weed control; type: in vivo, Echinochloa oryzoides (Ard.) Fritsch.; settings: rated 3-4 weeks after treatment, 0-9 rating scale
Method in brief: as §2

[12] = test system: ORYSAT (Rice, Tebonnet); experiment: Flooded paddy, post-transplant rice tolerance; type: in vivo, Oryza sativa, (L.) Tebonnet; settings: flooded paddy, post-transplant rice, rated 3-4 weeks after treatment, 0-9 rating scale
Method in brief: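 Steps: transplant two ten-day-old seedlings into silt loam; flood to 1.5-3 cm above soil; apply herbicide post-transplant; maintain water on greenhouse benches; rate stand, vigor, malformation, size and chlorosis on a 0-9 visual scale versus control.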

[13] = test system: ABUTH (Abutilon theophrasti); experiment: Postemergence herbicidal evaluation; type: in vivo, Medic.; settings: postemergence
Method in brief: as §1

[14] = test system: SAGPY (Sagittaria pygmaea); experiment: Flooded paddy, preemergence weed control; type: in vivo, L.; settings: rated 3-4 weeks after treatment, 0-9 rating scale
Method in brief: as §2

[15] = test system: AMBEL (Ambrosia artemisifolia); experiment: Preemergence herbicidal evaluation; type: in vivo, L.; settings: rated 4-5 weeks after treatment
Method in brief: as §3

[16] = test system: CHEAL (Chenopodium album); experiment: Preemergence herbicidal evaluation; type: in vivo, L.; settings: rated 4-5 weeks after treatment
Method in brief: as §3

[17] = test system: CASOB (Cassia obtusifolia); experiment: Preemergence herbicidal evaluation; type: in vivo, L.; settings: rated 4-5 weeks after treatment
Method in brief: as §3

[18] = test system: IPOHE (Ipomoea hederacea); experiment: Preemergence herbicidal evaluation; type: in vivo, (L.) Jacq.; settings: rated 4-5 weeks after treatment
[19] = test system: SETVI (Setaria viridis); experiment: Postemergence herbicidal evaluation; type: in vivo, (L.) Beau; settings: postemergence
Method in brief: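 Ratings use a 0-9 visual scale covering stand, vigor, malformation, size, chlorosis and appearance versus a control, scored 4-5 weeks post-spray. Roughly two-week-old seedlings received about 0.0040-1.000 kg/ha active, applied in 50/50 acetone/water with 0.5% TWEEN 20. Multiple tests per compound were averaged.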

[20] = test system: ORYSAT (Rice, Tebonnet); experiment: Postemergence herbicidal evaluation; type: in vivo, Oryza sativa, (L.) Tebonnet; settings: postemergence, rate 0.0320 kg/ha
Method in brief: as §1

Q: `Cn1c(C(F)(F)F)cc(=O)n(-c2cc3c(C4OCCO4)nsc3cc2F)c1=O` [Compound 61, 3-[3-(1,3-dioxolan-2-yl)-6-fluoro-1,2-benzisothiazol-5-yl]-1-methyl-6-(trifluoromethyl)uracil] was tested. Which GLXMAW herbicidal rating [1] did it give?
A: Its GLXMAW herbicidal rating is 9.0.

Q: And the ECHCG herbicidal rating ([2]; rate 0.0320 kg/ha)?
A: The ECHCG herbicidal rating was 5.0.

Q: What about the ECHCG herbicidal rating ([2]; rate 0.0620 kg/ha) of the same molecule?
A: Its ECHCG herbicidal rating is 3.0.

Q: And the ZEAMX herbicidal rating ([3]; rate 0.0320 kg/ha)?
A: The ZEAMX herbicidal rating was 5.5.

Q: And the ZEAMX herbicidal rating ([3]; rate 0.0620 kg/ha)?
A: The ZEAMX herbicidal rating was 5.5.

Q: And the IPOHE herbicidal rating ([4]; rate 0.0320 kg/ha)?
A: Its IPOHE herbicidal rating is 9.0.

Q: What about the IPOHE herbicidal rating ([4]; rate 0.0620 kg/ha) of the same molecule?
A: The IPOHE herbicidal rating was 9.0.

Q: What about the “Preemergence herbicidal rating ORYSAT” value ([5]; Rate 0.0002 kg/ha) of the same molecule?
A: Its value is 0.0.

Q: And the “Preemergence herbicidal rating ORYSAT” value ([5]; Rate 0.0160 kg/ha)?
A: Its value is 8.7.

Q: What about the “Preemergence herbicidal rating ORYSAT” value ([5]; Rate 0.0320 kg/ha) of the same molecule?
A: The value was 9.0.

Q: And the GALAP herbicidal rating [6]?
A: Its GALAP herbicidal rating is 9.0.

Q: What about the “herbicidal rating, CYPIR” value ([7]; rate 0.0080 kg/ha) of the same molecule?
A: The value was 8.7.

Q: What about the “herbicidal rating, CYPIR” value ([7]; rate 0.0320 kg/ha) of the same molecule?
A: Its value is 9.0.

Q: And the “herbicidal rating, CYPIR” value ([7]; rate 0.1250 kg/ha)?
A: Its value is 9.0.

Q: And the “Preemergence herbicidal rating ECHCG” value ([8]; Rate 0.0002 kg/ha)?
A: The value was 0.0.

Q: And the “Preemergence herbicidal rating ECHCG” value ([8]; Rate 0.0160 kg/ha)?
A: Its value is 9.0.

Q: What about the “Preemergence herbicidal rating ECHCG” value ([8]; Rate 0.0320 kg/ha) of the same molecule?
A: Its value is 9.0.

Q: And the “Preemergence herbicidal rating SETVI” value ([9]; Rate 0.0002 kg/ha)?
A: The value was 0.0.

Q: What about the “Preemergence herbicidal rating SETVI” value ([9]; Rate 0.0160 kg/ha) of the same molecule?
A: Its value is 9.0.

Q: And the “Preemergence herbicidal rating SETVI” value ([9]; Rate 0.0320 kg/ha)?
A: Its value is 9.0.

Q: What about the “herbicidal rating, MOOVA” value ([10]; rate 0.0080 kg/ha) of the same molecule?
A: The value was 8.5.

Q: What about the “herbicidal rating, MOOVA” value ([10]; rate 0.0320 kg/ha) of the same molecule?
A: Its value is 9.0.

Q: What about the “herbicidal rating, MOOVA” value ([10]; rate 0.1250 kg/ha) of the same molecule?
A: The value was 9.0.

Q: And the “herbicidal rating, ECHORC” value ([11]; rate 0.0080 kg/ha)?
A: Its value is 8.7.

Q: What about the “herbicidal rating, ECHORC” value ([11]; rate 0.0320 kg/ha) of the same molecule?
A: Its value is 9.0.

Q: What about the “herbicidal rating, ECHORC” value ([11]; rate 0.1250 kg/ha) of the same molecule?
A: Its value is 9.0.

Q: And the “herbicidal rating, ORYSAT (rice tolerance)” value (“herbicidal rating, ORYSAT” for short) ([12]; rate 0.0080 kg/ha)?
A: Its value is 8.0.

Q: And the “herbicidal rating, ORYSAT” value ([12]; rate 0.0320 kg/ha)?
A: The value was 9.0.

Q: What about the “herbicidal rating, ORYSAT” value ([12]; rate 0.1250 kg/ha) of the same molecule?
A: Its value is 9.0.

Q: And the ABUTH herbicidal rating ([13]; rate 0.0320 kg/ha)?
A: The ABUTH herbicidal rating was 9.0.

Q: What about the ABUTH herbicidal rating ([13]; rate 0.0620 kg/ha) of the same molecule?
A: The ABUTH herbicidal rating was 9.0.

Q: And the “herbicidal rating, SAGPY” value ([14]; rate 0.0080 kg/ha)?
A: The value was 3.0.

Q: And the “herbicidal rating, SAGPY” value ([14]; rate 0.0320 kg/ha)?
A: The value was 8.3.

Q: And the “herbicidal rating, SAGPY” value ([14]; rate 0.1250 kg/ha)?
A: Its value is 9.0.

Q: And the “Preemergence herbicidal rating AMBEL” value ([15]; Rate 0.0002 kg/ha)?
A: The value was 0.0.

Q: What about the “Preemergence herbicidal rating AMBEL” value ([15]; Rate 0.0160 kg/ha) of the same molecule?
A: The value was 9.0.

Q: And the “Preemergence herbicidal rating AMBEL” value ([15]; Rate 0.0320 kg/ha)?
A: Its value is 9.0.

Q: And the “Preemergence herbicidal rating CHEAL” value ([16]; Rate 0.0002 kg/ha)?
A: Its value is 2.0.

Q: What about the “Preemergence herbicidal rating CHEAL” value ([16]; Rate 0.0160 kg/ha) of the same molecule?
A: Its value is 9.0.

Q: And the “Preemergence herbicidal rating CHEAL” value ([16]; Rate 0.0320 kg/ha)?
A: Its value is 9.0.

Q: What about the “Preemergence herbicidal rating CASOB” value ([17]; Rate 0.0002 kg/ha) of the same molecule?
A: Its value is 0.0.

Q: And the “Preemergence herbicidal rating CASOB” value ([17]; Rate 0.0160 kg/ha)?
A: The value was 7.3.

Q: And the “Preemergence herbicidal rating CASOB” value ([17]; Rate 0.0320 kg/ha)?
A: Its value is 7.0.

Q: What about the “Preemergence herbicidal rating IPOHE” value ([18]; Rate 0.0002 kg/ha) of the same molecule?
A: The value was 0.0.

Q: What about the “Preemergence herbicidal rating IPOHE” value ([18]; Rate 0.0160 kg/ha) of the same molecule?
A: The value was 9.0.

Q: And the “Preemergence herbicidal rating IPOHE” value ([18]; Rate 0.0320 kg/ha)?
A: The value was 9.0.

Q: What about the SETVI herbicidal rating ([19]; rate 0.0320 kg/ha) of the same molecule?
A: The SETVI herbicidal rating was 7.5.

Q: And the SETVI herbicidal rating ([19]; rate 0.0620 kg/ha)?
A: The SETVI herbicidal rating was 8.0.

Q: What about the ORYSAT herbicidal rating [20] of the same molecule?
A: Its ORYSAT herbicidal rating is 5.5.
